Here are results for two molecules from ChEMBL document CHEMBL1158666, “Carmabins A and B, new lipopeptides from the Caribbean cyanobacterium Lyngbya majuscula” (J Nat Prod, 1998).

Activity calls are given as the source filed them. No cut-off for these calls is given here. Square brackets hold non-standard residues; d marks the D form. Peptide text beside a SMILES is read from it. * marks the point of attachment. NMeY = CN[C@@H](Cc1ccc(O)cc1)C(=O)O; NMeF = CN[C@@H](Cc1ccccc1)C(=O)O; X2 = CC(=O)CCCCC(C)CC(C)C(=O)*; X1 = C#CCCCCC(C)CC(C)C(=O)*; NMeA = CN[C@@H](C)C(=O)O

The assay deals with NCI60. Kind of assay: Cytotoxicity against human NCI60 cells. The format is functional, cell-based.

On to `C#CCCCCC(C)CC(C)C(=O)N(C)[C@@H](Cc1ccccc1)C(=O)N[C@@H](C)C(=O)N(C)[C@@H](C)C(=O)N(C)[C@@H](Cc1ccc(OC)cc1)C(N)=O` (some centres not stated) (X1-[NMeF]A[NMeA][NMeY](Me)-NH2), for which the result was inactive. Regarding `COc1ccc(C[C@@H](C(N)=O)N(C)C(=O)[C@H](C)N(C)C(=O)[C@H](C)NC(=O)[C@H](Cc2ccccc2)N(C)C(=O)C(C)CC(C)CCCCC(C)=O)cc1` (some centres not stated) (X2-[NMeF]A[NMeA][NMeY](Me)-NH2), the result was inactive.
